Values joined by “and” are separate entries in the source; they are usually repeats but may differ in a detail not shown here. Equal entries are not always repeated.
How the values were obtained:
[1] = tested on: patients with DE-associated NOP; test: Ocular Pain Assessment Survey (OPAS) in pilot study of topical cryosim-3; format: in vivo, human; conditions: C3 2 mg/mL eyelid wipe 4 times/day, mean ± SD, 15 patients; for OPAS Tearing (0-1): baseline 0.36 ± 0.29; for OPAS Redness (0-1): baseline 0.41 ± 0.32; for OPAS Chemical stimuli (0-1): baseline 0.47 ± 0.35; for OPAS Burning sensation (0-1): baseline 0.57 ± 0.37; for OPAS Mechanical stimuli (0-1): baseline 0.63 ± 0.29; for OPAS Sensitivity to light (0-1): baseline 0.76 ± 0.24; for OPAS Aggravating factors (total 0-2): baseline 1.11 ± 0.49; for OPAS Associated factors (total 0-4): baseline 2.09 ± 0.76; for OPAS General activity (walking, etc.) (0-10): baseline 4.00 ± 3.18; for OPAS Sleep (0-10): baseline 4.27 ± 3.81; for OPAS Enjoying life/relations with other people (0-10): baseline 5.07 ± 2.84; for OPAS Mood (0-10): baseline 5.40 ± 2.77; for OPAS Driving and/or watching TV (0-10): baseline 6.80 ± 2.31; for OPAS Non-eye pain (0-20): baseline 7.67 ± 6.22; for OPAS Reading and/or computer use (0-10): baseline 7.79 ± 1.76; for OPAS Eye pain intensity (0-60): baseline 30.60 ± 12.84; for OPAS Quality of life (total 0-60): baseline 33.53 ± 14.24
Procedure: (§1) This prospective non-randomized pilot study was conducted in accordance with the tenets of the Declaration of Helsinki. Ethical approval was obtained from the Chonnam National University Hospital Institutional Review Board (CNUH-2018-274). Informed consent was obtained from all included patients. The sample size was calculated using the G*Power software (version 3.1.9.4; Heinrich-Heine University, Germany) with a level of α=0.05 and a power of 95% to detect a 2-point difference in pain scales. Accordingly, a total sample size of 13 patients was found sufficient.
(§2) Patients with DE accompanied by NOP features, who underwent evaluation between January and December in 2018, were enrolled. DE was diagnosed based on OSDI score ≥13 and tear break-up time (TBUT) ≤7 s. The inclusion criteria were as follows: (1) chronic ocular pain which was unresponsive to conventional topical agents (i.e. lubricants, anti-inflammatories, secretagogues, etc.) for >3 months; (2) discordance between the painful DE symptoms and signs accompanying with specific descriptors, including burning or stinging; and (3) a Wong-Baker FACES Pain Rating Scale (WBFPS) score […].
(§3) The patients were treated with add-on C3 while undergoing conventional topical treatment. C3 samples (2 mg/mL) were diluted in purified water, soaked in gauze, and packaged using automated equipment. The patients applied topical C3 by wiping the gauze on the closed eyelid margin, 4 times/day for 1 month (FIG. 1).
The WBFPS was chosen to screen the pain severity in the patients with DE. The patients chose the face that best depicted the pain they were experiencing. At baseline, 1 week, and 1 month after treatment, the patients also completed the OPAS which is a validated questionnaire for neuropathic pain as previously described. The questions were divided into sections for analysis: questions 4-9, pertained to eye pain intensity (0 to 60); questions 10-11, pertained to non-eye pain (0 to 20); questions 13-19 (0-10, total score 0 to 60), assessed the QoL (reading and/or computer use, driving and/or watching TV, general activity, mood, sleep, and enjoying life/relations with other people); questions 20-21 (each score 0-1, total score 0-2), assessed aggravating factors (mechanical and chemical stimuli); and questions 22-25 (each score 0-1, total score 0-4), assessed associated factors (redness; burning; sensitivity to light; and tearing). The section on symptomatic relief of the OPAS was excluded, and only questions 4-25 were analyzed. The questions were divided into 5 sections as follows: eye pain intensity, non-eye pain, QoL, aggravating factors, and associated factors.
(§4) Statistical analyses were conducted using PASW Statistics for Windows, Version 18.0 (SPSS Inc., Chicago, IL, USA). The normality of distribution was assessed using the Shapiro-Wilk test. The Wilcoxon signed-rank test and repeated-measures analysis of variance with Bonferroni's post-hoc test were used for comparing parameters before and after treatment. A P<0.05 was considered statistically significant.

[2] = tested on: patients with DE-associated NOP; test: Clinical dry eye parameters (OSDI, TBUT, Schirmer test, corneal staining) in pilot study; format: in vivo, human; conditions: C3 2 mg/mL eyelid wipe 4 times/day, 1-month, mean ± SD
Excerpt: as §2, §3
The OSDI questionnaire which ranged from 0 to 100 was used to quantify the vision-related QoL. TBUT (tear breakup time), the time interval between the last complete blink and the first appearance of disruption of the tear film, was measured thrice and the mean value was used for analysis. Corneal staining scores were assessed using the area-density index, by multiplying the area and density score. The Schirmer test score represented the length of wetting, and was measured using a calibrated sterile strip placed at the lateral canthus for 5 min under topical anesthesia (0.5% proparacaine). Only the score of the right eye was assessed.
as §4

[3] = tested on: patients with DE-associated NOP; test: Wong-Baker FACES Pain Rating Scale (WBFPS) in enrolled patients; format: in vivo, human; conditions: individual patients No. 1-15
Excerpt: as §2
The patients were treated with add-on C3 while undergoing conventional topical treatment. […]
The WBFPS was chosen to screen the pain severity in the patients with DE. […] The questions were divided into sections for analysis: questions 4-9, pertained to eye pain intensity (0 to 60); questions 10-11, pertained to non-eye pain (0 to 20); questions 13-19 (0-10, total score 0 to 60), assessed the QoL (reading and/or computer use, driving and/or watching TV, general activity, mood, sleep, and enjoying life/relations with other people); questions 20-21 (each score 0-1, total score 0-2), assessed aggravating factors (mechanical and chemical stimuli); and questions 22-25 (each score 0-1, total score 0-4), assessed associated factors (redness; burning; sensitivity to light; and tearing). […]

[4] = tested on: patients with DE accompanying NOP features; test: Pilot study: discontinuation, safety and onset of effect; format: in vivo, human
Procedure: as §1, §3
This study enrolled 20 patients with DE accompanying NOP features. Five patients (25.0%) discontinued the treatment because of drug ineffectiveness or intolerance. The remaining 15 patients (75.0%) were included in the analysis. Their mean age was 59.5±13.0 years, and nine patients (60.0%) were women.

patients with mild DE = conditions: cited from earlier work
[5] = topical C3 in DE, previous study

## CCCCCCCCCP(=O)(C(C)C)C(C)C [cryosim-3, 1-[Diisopropyl-phosphinoyl]-nonane]
[1]; 1-month
  OPAS Tearing (0-1): 0.21 ± 0.27
  OPAS Redness (0-1): 0.39 ± 0.30
  OPAS Chemical stimuli (0-1): 0.41 ± 0.32
  OPAS Burning sensation (0-1): 0.29 ± 0.29
  OPAS Mechanical stimuli (0-1): 0.47 ± 0.26
  OPAS Sensitivity to light (0-1): 0.59 ± 0.28
  OPAS Aggravating factors (total 0-2): 0.88 ± 0.57
  OPAS Associated factors (total 0-4): 1.58 ± 0.93
  OPAS General activity (walking, etc.) (0-10): 3.20 ± 2.86
  OPAS Sleep (0-10): 2.73 ± 3.81
  OPAS Enjoying life/relations with other people (0-10): 4.27 ± 3.03
  OPAS Mood (0-10): 4.40 ± 2.47
  OPAS Driving and/or watching TV (0-10): 5.60 ± 2.90
  OPAS Non-eye pain (0-20): 5.47 ± 5.62
  OPAS Reading and/or computer use (0-10): 6.93 ± 2.59
  OPAS Eye pain intensity (0-60): 21.53 ± 10.84
  OPAS Quality of life (total 0-60): 27.17 ± 16.06
[1]; 1-week
  OPAS Tearing (0-1): 0.17 ± 0.18
  OPAS Redness (0-1): 0.41 ± 0.30
  OPAS Chemical stimuli (0-1): 0.41 ± 0.35
  OPAS Burning sensation (0-1): 0.40 ± 0.33
  OPAS Mechanical stimuli (0-1): 0.47 ± 0.25
  OPAS Sensitivity to light (0-1): 0.57 ± 0.26
  OPAS Aggravating factors (total 0-2): 0.87 ± 0.56
  OPAS Associated factors (total 0-4): 1.55 ± 0.85
  OPAS General activity (walking, etc.) (0-10): 3.27 ± 2.71
  OPAS Sleep (0-10): 2.93 ± 3.67
  OPAS Enjoying life/relations with other people (0-10): 4.33 ± 2.97
  OPAS Mood (0-10): 4.53 ± 2.50
  OPAS Driving and/or watching TV (0-10): 5.27 ± 2.52
  OPAS Non-eye pain (0-20): 6.73 ± 6.18
  OPAS Reading and/or computer use (0-10): 7.14 ± 2.48
  OPAS Eye pain intensity (0-60): 26.47 ± 11.45
  OPAS Quality of life (total 0-60): 27.60 ± 15.49
[2]; 5 min under topical anesthesia, baseline 7.07 ± 2.76
  Schirmer test score: 8.47 ± 2.80 mm
[2]; baseline 0.60 ± 0.91
  Corneal staining score (0-9): 0.13 ± 0.35
[2]; baseline 4.13 ± 0.83
  Tear break-up time: 4.00 ± 0.85 s
[2]; scale 0 to 100, baseline 57.5 ± 13.8
  Ocular surface disease index: 40.2 ± 12.6
[3]; 1 month of add-on C3 2 mg/mL eyelid wipe 4 times/day
  WBFPS score: 2 and 5 (4×) and 6 (2×) and 3 and 4 (3×) and 1 (3×) and 7
[3]; 1 week of add-on C3 2 mg/mL eyelid wipe 4 times/day
  WBFPS score: 1 (4×) and 7 (3×) and 6 (5×) and 3 and 5 (2×)
[4]; five of 20 enrolled patients
  patients who discontinued the treatment because of drug ineffectiveness or intolerance: 25.0%
[4]; patients unresponsive to conventional treatment (122.7 days)
  time to improvement of ocular pain after C3 treatment: ≤ 1 week
[4]; patients with DE
  safety and effectiveness of topical application to the eyelid in relieving NOP: safe and effective
Patients with mild DE; [5]
  effect on basal tear secretion: increasing basal tear secretion
  effect on ocular discomfort: alleviating ocular discomfort without any complications
Patients with mild DE; wiping of C3
  duration of painless cooling sensation after wiping: approximately 40 minutes
